{"source": "patent US20260374782A1", "about": "“NEW COMPOUNDS, PROCESSES FOR PREPARING THE SAME AND THEIR USE AS DRUGS” (B&A ONCOMEDICAL, priority 2022, published 2026)", "test_system": "CA3 pyramidal neurons in hippocampus", "experiment": "Giant depolarizing potentials (GDPs) current density in CA3 pyramidal neurons, hippocampal slices, whole-cell recordings", "type": "cell-based, mice", "conditions": "for GDPs current density (normalized): individual cells; for activity at 0.1 µM / activity at 0.3 µM / activity at 1 µM / activity at 3 µM / activity at 10 µM: Mus musculus, Pyramidal neuron, mean, read-out: GDPs current density, Mean (normalized); for block of GDPs in CA3 pyramidal neurons: in words", "source_text": "FIG. 2. Brain slice (hippocampus) with electrical stimulation and recording\nFIG. 3. Normalized GDP current density in CA3 pyramidal neurons in presence of NKCC1 inhibitor\nPanel A. Normalized GDP current density in CA3 pyramidal neurons according to the concentration of compound 57 in μM Panel B. Normalized GDP current density in CA3 pyramidal neurons according to the concentration of compound 51 in μM Panel C. Normalized GDP current density in CA3 pyramidal neurons according to the concentration of compound 57 and compound 51 in μM.\n51 and 57 were tested to evaluate their basic neuronal intrinsic properties and excitability. Current-clamp whole-cell recordings were performed in CA3 pyramidal neurons in hippocampal slices from P14-15 mice with a bipolar stimulation electrode (FIG. 2).", "note": "Values joined by “and” are separate entries in the source; they are usually repeats but may differ in a detail not shown here. Equal values may be shown once."}
{"smiles": "CCCCNc1cc(C(=O)O)cc(S(=N)(=O)NC)c1Oc1ccccc1", "note": "(stereo not shown) [Compound 51, 3-(butylamino)-5-(methylaminosulfonimidoyl)-4-phenoxy-benzoic acid]", "values": [{"measurement": "GDPs current density (normalized)", "setting": "0.1 μM", "result": "0.6538 and 1.003 and 0.8458 and 0.6095 and 0.2984"}, {"measurement": "GDPs current density (normalized)", "setting": "0.3 μM", "result": "0.2304 and 0.3999 and 0.22 and 0.9979 and 1.222 and 0.1863"}, {"measurement": "GDPs current density (normalized)", "setting": "1 μM", "result": "0.2253 and 0.1713 and 0.1814 and 0.3747 and 0.3549 and 0.1282 and 0.4268"}, {"measurement": "GDPs current density (normalized)", "setting": "3 μM", "result": "0.1082 and 0.484 and 0.1443 and 0.1442 and 0.08715 and 0 and 0.175"}, {"measurement": "GDPs current density (normalized)", "setting": "10 μM", "result": "0.1092 and 0 (2×) and 0.04 (2×) and 0.05"}, {"measurement": "activity at 0.1 µM", "setting": "0.1 μM", "result": 68.2, "unit": "%"}, {"measurement": "activity at 0.3 µM", "setting": "0.3 μM", "result": 54.3, "unit": "%"}, {"measurement": "activity at 1 µM", "setting": "1 μM", "result": 26.6, "unit": "%"}, {"measurement": "activity at 3 µM", "setting": "3 μM", "result": 16.3, "unit": "%"}, {"measurement": "activity at 10 µM", "setting": "10 μM", "result": 3.99, "unit": "%"}, {"measurement": "block of GDPs in CA3 pyramidal neurons", "result": "able to block GDPs"}]}
{"smiles": "CCCCNc1cc(C(=O)O)cc(S(=N)(=O)Nc2ccccc2)c1Oc1ccccc1", "note": "(stereo not shown) [Compound 57, 3-(anilinosulfonimidoyl)-5-(butylamino)-4-phenoxy-benzoic acid]", "values": [{"measurement": "GDPs current density (normalized)", "setting": "0.1 μM", "result": "1.067 and 0.6415 and 0.36 and 0.7716 and 1.279 and 0.8652 and 0.5079 and 0.901"}, {"measurement": "GDPs current density (normalized)", "setting": "0.3 μM", "result": "0.3666 and 0.448 and 0.5922 and 0.1844 and 0.9957 and 0.5556 and 0.7164"}, {"measurement": "GDPs current density (normalized)", "setting": "1 μM", "result": "0.5108 and 0.3317 and 0.1389 and 0.1288 and 0.09779 and 0.191 and 0.2683 and 0.352"}, {"measurement": "GDPs current density (normalized)", "setting": "3 μM", "result": "0.06999 and 0.4997 and 0.2222 and 0.0431 and 0.2732 and 0.2642 and 0"}, {"measurement": "GDPs current density (normalized)", "setting": "10 μM", "result": "0.06399 and 0.2068 and 0 (3×)"}, {"measurement": "activity at 0.1 µM", "setting": "0.1 μM", "result": 79.9, "unit": "%"}, {"measurement": "activity at 0.3 µM", "setting": "0.3 μM", "result": 55.1, "unit": "%"}, {"measurement": "activity at 1 µM", "setting": "1 μM", "result": 25.2, "unit": "%"}, {"measurement": "activity at 3 µM", "setting": "3 μM", "result": 19.6, "unit": "%"}, {"measurement": "activity at 10 µM", "setting": "10 μM", "result": 5.42, "unit": "%"}, {"measurement": "block of GDPs in CA3 pyramidal neurons", "result": "able to block GDPs"}]}
